Legend:
Format in all cases: functional
Details in all cases: read-out: IZ
Candida albicans [1] = assay: Antimicrobial activity against Candida albicans at 10 ug/disk by agar diffusion assay
Staphylococcus aureus [2] = assay: Antimicrobial activity against Staphylococcus aureus at 5 ug/disk by agar diffusion assay
Bacillus subtilis [3] = assay: Antimicrobial activity against Bacillus subtilis at 5 ug/disk by agar diffusion assay
Candida albicans [4] = assay: Antimicrobial activity against Candida albicans at 5 ug/disk by agar diffusion assay
Bacillus subtilis [5] = assay: Antimicrobial activity against Bacillus subtilis at 10 ug/disk by agar diffusion assay
Staphylococcus aureus [6] = assay: Antimicrobial activity against Staphylococcus aureus at 10 ug/disk by agar diffusion assay
Escherichia coli [7] = assay: Antimicrobial activity against Escherichia coli at 5 ug/disk by agar diffusion assay
Escherichia coli [8] = assay: Antimicrobial activity against Escherichia coli at 10 ug/disk by agar diffusion assay

SMILES | zone of inhibition at 10 µg/disc (Candida albicans [1]) [mm] | zone of inhibition at 5 µg/disc (Staphylococcus aureus [2]) [mm] | zone of inhibition at 5 µg/disc (Bacillus subtilis [3]) [mm] | zone of inhibition at 5 µg/disc (Candida albicans [4]) [mm] | zone of inhibition at 10 µg/disc (Bacillus subtilis [5]) [mm] | zone of inhibition at 10 µg/disc (Staphylococcus aureus [6]) [mm] | zone of inhibition at 5 µg/disc (Escherichia coli [7]) [mm] | zone of inhibition at 10 µg/disc (Escherichia coli [8]) [mm]
Oc1ccc2[nH]c3c([C@@H](O)Cc4ccccc4)nccc3c2c1 [EUDISTOMIN W] | 13 | – | – | – | – | – | – | –
CN(C)C(Cc1ccccc1)c1nccc2c1[nH]c1ccc(O)cc12 (centres undefined) [EUDISTOMIN X] | 18 | 11 | 17 | 17 | 18 | 12 | 15 | 20
